Laboratory results as given in patent publication US9567345B2, “Pharmaceutically active pyrazolo-triazine derivatives” (LEAD DISCOVERY CENTER GMBH, priority 2012, dated 2017).
Read-outs that look alike come from different tables or passages of the source.

Tests used:
CDK9/Cyclin T1 = CDK9/Cyclin T1 (Homo sapiens, UniProt P50750); test: CDK9 Enzymatic Activity Assay (Lance Kinase Activity Assay, FRET); assay type: biochemical; conditions: for IC50: Table 5B, class symbols per IC50 [nM] ranges of b581, read-out: CDK9: Selectivity of CDK7 inhibition over CDK9 inhibition
Protocol: (§1) This protocol describes how the Lance Kinase Activity Assay was performed to determine IC50 values of compounds of general formula (I) against CDK/Cyclin complexes. The principle behind this enzymatic assay is based upon the phosphorylation of the Ulight-Peptide Substrat. It is detected by using a specific EU-labeled anti-phospho peptide antibody.
(§2) Binding of an inhibitor to the kinase prevents phosphorylation of the Ulight-MBP Substrat, resulting in a loss of FRET.
CDK9 Enzymatic Activity Assay
(§3) The compounds of general formula (I) exemplary summarized in Table 1 were diluted from a 10 mM DMSO stock solution 1:10 in a total volume of 15 μl DMSO. This compound predilution was then serial diluted 1:3 over 8 steps in DMSO and briefly spun down. Each compound solution was now diluted 1:20 in Enzymatic Buffer (HEPES: 50 mM, pH: 7.5; MgCl2: 10 mM; EGTA: 1 mM; DTT: 2 mM; Tween-20: 0.01%), mixed thoroughly and spun down.
(§4) For positive controls, 2 μl of DMSO working solution were mixed with 6 μl CDK9/cyclin T1/substrate working solution and 2 μl ATP working solution. Positive and negative controls were calculated from at least 8 different wells. The 384 well plates were mixed in a Teleshaker plate mixer (Beckman Coulter, Brea, Calif., USA) at 2000 rpm for 40 sec, and incubated for 1 h at room temperature before addition of 10 μl LANCE Detection Buffer (1×; EDTA: […]; Eu-Anti-P-MBP: 4 nM) per well. Plates were mixed in a Teleshaker plate mixer (Beckman Coulter, Brea, Calif., USA) at 2000 rpm for 40 sec, followed by incubation with Detection Buffer for 1 h, and reading. […] IC50 values were determined from the sigmoidal dose response curves with the software Quattro Workflow (Quattro GmbH, Munich, Germany).

CDK7/CycH/Mat1 = CDK7/CycH/Mat1 (Homo sapiens, UniProt P50613); test: CDK7 Enzymatic Activity Assay (Lance Kinase Activity Assay, FRET); assay type: biochemical
Protocol: as §1, §2
CDK7 Enzymatic Activity Assay
as §3
as §4, with “CDK7/CycH/Mat1/substrate” for “CDK9/cyclin T1/substrate”

[1] = CDK7/CycH/Mat1, 25 μM ATP final, class ranges, read-out: CDK7: IC50 [nM] for CDK7 inhibition

CDK9/Cyclin T1, sequence (P50750 whole entry): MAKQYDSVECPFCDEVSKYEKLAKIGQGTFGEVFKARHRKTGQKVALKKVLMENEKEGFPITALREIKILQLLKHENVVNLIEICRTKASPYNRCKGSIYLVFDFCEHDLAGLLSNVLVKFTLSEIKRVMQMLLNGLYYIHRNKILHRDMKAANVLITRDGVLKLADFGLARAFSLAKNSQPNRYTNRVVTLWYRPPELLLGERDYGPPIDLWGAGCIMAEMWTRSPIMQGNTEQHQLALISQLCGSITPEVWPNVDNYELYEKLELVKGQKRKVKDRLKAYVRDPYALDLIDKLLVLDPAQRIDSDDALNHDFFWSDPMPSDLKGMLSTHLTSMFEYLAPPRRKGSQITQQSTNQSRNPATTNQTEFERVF
CDK9/Cyclin T1, sequence (O60563 whole entry partner): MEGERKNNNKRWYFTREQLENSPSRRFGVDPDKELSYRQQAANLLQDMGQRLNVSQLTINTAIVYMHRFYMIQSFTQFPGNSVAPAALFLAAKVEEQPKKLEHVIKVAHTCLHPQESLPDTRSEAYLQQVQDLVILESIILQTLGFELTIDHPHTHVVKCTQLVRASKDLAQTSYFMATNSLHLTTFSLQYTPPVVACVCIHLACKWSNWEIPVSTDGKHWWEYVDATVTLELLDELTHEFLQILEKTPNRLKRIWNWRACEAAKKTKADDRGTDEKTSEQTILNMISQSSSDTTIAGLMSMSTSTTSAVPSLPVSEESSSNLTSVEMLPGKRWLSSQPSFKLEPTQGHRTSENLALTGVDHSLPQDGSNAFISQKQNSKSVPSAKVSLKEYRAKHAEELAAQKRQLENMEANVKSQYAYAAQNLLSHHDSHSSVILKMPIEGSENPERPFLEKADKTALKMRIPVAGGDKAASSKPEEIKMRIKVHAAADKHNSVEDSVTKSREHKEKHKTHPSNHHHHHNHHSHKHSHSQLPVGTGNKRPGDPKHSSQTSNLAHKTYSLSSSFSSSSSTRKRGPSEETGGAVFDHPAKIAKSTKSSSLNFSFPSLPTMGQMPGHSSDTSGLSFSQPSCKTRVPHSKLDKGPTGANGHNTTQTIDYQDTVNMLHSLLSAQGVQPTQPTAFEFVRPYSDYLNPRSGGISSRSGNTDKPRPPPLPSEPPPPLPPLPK
CDK7/CycH/Mat1, sequence (P50613 whole entry): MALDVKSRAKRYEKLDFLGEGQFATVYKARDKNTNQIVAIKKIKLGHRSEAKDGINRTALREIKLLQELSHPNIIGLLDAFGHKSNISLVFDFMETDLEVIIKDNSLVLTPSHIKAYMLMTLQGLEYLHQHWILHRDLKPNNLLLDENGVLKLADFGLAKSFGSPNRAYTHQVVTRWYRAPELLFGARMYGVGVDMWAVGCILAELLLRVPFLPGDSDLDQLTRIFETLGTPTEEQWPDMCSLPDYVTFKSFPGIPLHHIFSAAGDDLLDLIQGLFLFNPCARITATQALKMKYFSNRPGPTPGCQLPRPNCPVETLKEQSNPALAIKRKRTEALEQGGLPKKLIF

CC(C)c1cnn2c(NCc3c(Cl)cccc3Cl)nc(OC3CCN(C)CC3)nc12 [(VII-63), N-(2,6-dichlorobenzyl)-8-isopropyl-2-((1-methylpiperidin-4-yl)oxy)pyrazolo[1,5-a][1,3,5]triazin-4-amine]
IC50 (CDK9/Cyclin T1): > 2500 nM
IC50 (CDK7/CycH/Mat1; [1]): 10 to 25 nM

CC(C)c1cnn2c(NCc3c(F)cccc3F)nc(OC3CCN(C)CC3)nc12 [(VII-64), N-(2,6-difluorobenzyl)-8-isopropyl-2-((1-methylpiperidin-4-yl)oxy)pyrazolo[1,5-a][1,3,5]triazin-4-amine]
IC50 (CDK9/Cyclin T1): 50 to 500 nM
IC50 (CDK7/CycH/Mat1; [1]): 5 to 10 nM

CC(C)Oc1ccccc1CNc1nc(OC2CCN(C)CC2)nc2c(C(C)C)cnn12 [(VII-66), N-(2-isopropoxybenzyl)-8-isopropyl-2-((1-methylpiperidin-4-yl)oxy)pyrazolo[1,5-a][1,3,5]triazin-4-amine]
IC50 (CDK9/Cyclin T1): > 2500 nM
IC50 (CDK7/CycH/Mat1; [1]): < 5 nM

COc1ccccc1[C@H](C)Nc1nc(OC2CCN(C)CC2)nc2c(C(C)C)cnn12 [(VII-67), (S)-8-isopropyl-N-(1-(2-methoxyphenyl)ethyl)-2-((1-methylpiperidin-4-yl)oxy)pyrazolo[1,5-a][1,3,5]triazin-4-amine]
IC50 (CDK9/Cyclin T1): > 2500 nM
IC50 (CDK7/CycH/Mat1; [1]): < 5 nM

CC(C)c1cnn2c(N[C@@H](C)c3cccc4ccccc34)nc(OC3CCN(C)CC3)nc12 [(VII-69), (S)-8-isopropyl-2-((1-methylpiperidin-4-yl)oxy)-N-(1-(naphthalen-1-yl)ethyl)pyrazolo[1,5-a][1,3,5]triazin-4-amine]
IC50 (CDK9/Cyclin T1): > 2500 nM
IC50 (CDK7/CycH/Mat1; [1]): < 5 nM

CCOc1ccccc1CNc1nc(OC2CCN(C)CC2)nc2c(C(C)C)cnn12 [(VII-70), N-(2-ethoxybenzyl)-8-isopropyl-2-((1-methylpiperidin-4-yl)oxy)pyrazolo[1,5-a][1,3,5]triazin-4-amine]
IC50 (CDK9/Cyclin T1): > 2500 nM
Selectivity CDK7 over CDK9 (CDK9/Cyclin T1; Table 6): 992 fold
IC50 (CDK7/CycH/Mat1; [1]): < 5 nM
IC50 (CDK7/CycH/Mat1; Table 6, read-out: IC50 CDK7): < 5 nM

Cc1nccn1-c1ccccc1CNc1nc(OC2CCN(C)CC2)nc2c(C(C)C)cnn12 [(VII-75), 8-isopropyl-N-(2-(2-methyl-1H-imidazol-1-yl)benzyl)-2-((1-methylpiperidin-4-yl)oxy)pyrazolo[1,5-a][1,3,5]triazin-4-amine]
IC50 (CDK9/Cyclin T1): > 2500 nM
IC50 (CDK7/CycH/Mat1; [1]): < 5 nM

CC(C)NS(=O)(=O)c1ccccc1CNc1nc(O[C@@H]2CCCNC2)nc2c(C(C)C)cnn12 [(VII-105), (R)-N-isopropyl-2-(((8-isopropyl-2-(piperidin-3-yloxy)pyrazolo[1,5-a][1,3,5]triazin-4-yl)amino)methyl)benzenesulfonamide]
IC50 (CDK9/Cyclin T1): > 2500 nM
IC50 (CDK7/CycH/Mat1; [1]): > 25 nM

CC(C)c1cnn2c(NCc3ccccc3-n3cccn3)nc(N3CC4(CCNC4)C3)nc12 [(VIII-02), N-(2-(1H-pyrazol-1-yl)benzyl)-8-isopropyl-2-(2,6-diazaspiro[3.4]octan-2-yl)pyrazolo[1,5-a][1,3,5]triazin-4-amine]
IC50 (CDK9/Cyclin T1): > 2500 nM
IC50 (CDK7/CycH/Mat1; [1]): < 5 nM

CC(C)c1cnn2c(NCc3ccccc3-n3cccn3)nc(N3CCC4(CCNC4)C3)nc12 (stereo not shown) [(VIII-03), N-(2-(1H-pyrazol-1-yl)benzyl)-8-isopropyl-2-(2,7-diazaspiro[4.4]nonan-2-yl)pyrazolo[1,5-a][1,3,5]triazin-4-amine]
IC50 (CDK9/Cyclin T1): > 2500 nM
IC50 (CDK7/CycH/Mat1; [1]): < 5 nM

CC(C)c1cnn2c(NCc3ccccc3-n3cccn3)nc(N3CCC34CCCNC4)nc12 (stereo not shown) [(VIII-04), N-(2-(1H-pyrazol-1-yl)benzyl)-8-isopropyl-2-(1,6-diazaspiro[3.5]nonan-1-yl)pyrazolo[1,5-a][1,3,5]triazin-4-amine]
IC50 (CDK9/Cyclin T1): > 2500 nM
IC50 (CDK7/CycH/Mat1; [1]): 10 to 25 nM

CC(C)c1cnn2c(NCc3ccccc3-n3cccn3)nc(N3CC4(CCCNC4)C3)nc12 [(VIII-05), N-(2-(1H-pyrazol-1-yl)benzyl)-8-isopropyl-2-(2,6-diazaspiro[3.5]nonan-2-yl)pyrazolo[1,5-a][1,3,5]triazin-4-amine]
IC50 (CDK9/Cyclin T1): > 2500 nM
IC50 (CDK7/CycH/Mat1; [1]): < 5 nM

CC(C)c1cnn2c(NCc3ccccc3-n3cccn3)nc(N3CCC4(CCCCN4)C3)nc12 (stereo not shown) [(VIII-06), N-(2-(1H-pyrazol-1-yl)benzyl)-8-isopropyl-2-(2,6-diazaspiro[4.5]decan-2-yl)pyrazolo[1,5-a][1,3,5]triazin-4-amine]
IC50 (CDK9/Cyclin T1): > 2500 nM
IC50 (CDK7/CycH/Mat1; [1]): < 5 nM

CC(C)c1cnn2c(NCc3ccccc3-n3cccn3)nc(N3CCC4(CNC4)C3)nc12 [(VIII-07), N-(2-(1H-pyrazol-1-yl)benzyl)-8-isopropyl-2-(2,6-diazaspiro[3.4]octan-6-yl)pyrazolo[1,5-a][1,3,5]triazin-4-amine]
IC50 (CDK9/Cyclin T1): > 2500 nM
IC50 (CDK7/CycH/Mat1; [1]): < 5 nM

CC(C)c1cnn2c(NCc3ccccc3-n3cccn3)nc(N3CCC34CNC4)nc12 [(VIII-08), N-(2-(1H-pyrazol-1-yl)benzyl)-8-isopropyl-2-(1,6-diazaspiro[3.3]heptan-1-yl)pyrazolo[1,5-a][1,3,5]triazin-4-amine]
IC50 (CDK9/Cyclin T1): > 2500 nM
IC50 (CDK7/CycH/Mat1; [1]): 5 to 10 nM

CC(C)c1cnn2c(NCc3ccccc3-n3cccn3)nc(N3CCC4(CCNC4)CC3)nc12 [(VIII-09), N-(2-(1H-pyrazol-1-yl)benzyl)-8-isopropyl-2-(2,8-diazaspiro[4.5]decan-8-yl)pyrazolo[1,5-a][1,3,5]triazin-4-amine]
IC50 (CDK9/Cyclin T1): > 2500 nM
IC50 (CDK7/CycH/Mat1; [1]): 5 to 10 nM

CC(C)c1cnn2c(NCc3ccccc3-n3cccn3)nc(N3CC4(CNC4)C3)nc12 [(VIII-10), N-(2-(1H-pyrazol-1-yl)benzyl)-8-isopropyl-2-(2,6-diazaspiro[3.3]heptan-2-yl)pyrazolo[1,5-a][1,3,5]triazin-4-amine]
IC50 (CDK9/Cyclin T1): > 2500 nM
IC50 (CDK7/CycH/Mat1; [1]): 5 to 10 nM

CC(C)c1cnn2c(NCc3ccccc3-n3cccn3)nc(N3CC4(CCNCC4)C3)nc12 [(VIII-12), N-(2-(1H-pyrazol-1-yl)benzyl)-8-isopropyl-2-(2,7-diazaspiro[3.5]nonan-2-yl)pyrazolo[1,5-a][1,3,5]triazin-4-amine]
IC50 (CDK9/Cyclin T1): > 2500 nM
IC50 (CDK7/CycH/Mat1; [1]): < 5 nM

CC(C)c1cnn2c(NCc3ccccc3-n3cccn3)nc(N3CCCC34CCNC4)nc12 (stereo not shown) [(VIII-13), N-(2-(1H-pyrazol-1-yl)benzyl)-8-isopropyl-2-(1,7-diazaspiro[4.4]nonan-1-yl)pyrazolo[1,5-a][1,3,5]triazin-4-amine]
IC50 (CDK9/Cyclin T1): > 2500 nM
IC50 (CDK7/CycH/Mat1; [1]): 5 to 10 nM

CC(C)c1cnn2c(NCc3ccccc3-n3cccn3)nc(N3CCCC4(CCCNC4)C3)nc12 (stereo not shown) [(VIII-14), N-(2-(1H-pyrazol-1-yl)benzyl)-8-isopropyl-2-(2,8-diazaspiro[5.5]undecan-2-yl)pyrazolo[1,5-a][1,3,5]triazin-4-amine]
IC50 (CDK9/Cyclin T1): > 2500 nM
IC50 (CDK7/CycH/Mat1; [1]): 10 to 25 nM

CC(C)c1cnn2c(NCc3ccccc3-n3cccn3)nc(N3CCCC4(CCCCN4)C3)nc12 (stereo not shown) [(VIII-15), N-(2-(1H-pyrazol-1-yl)benzyl)-8-isopropyl-2-(1,8-diazaspiro[5.5]undecan-8-yl)pyrazolo[1,5-a][1,3,5]triazin-4-amine]
IC50 (CDK9/Cyclin T1): > 2500 nM
IC50 (CDK7/CycH/Mat1; [1]): 10 to 25 nM

CC(C)c1cnn2c(NCc3ccccc3-n3cccn3)nc(N3CCC4(CC3)CNC4)nc12 [(VIII-16), N-(2-(1H-pyrazol-1-yl)benzyl)-8-isopropyl-2-(2,7-diazaspiro[3.5]nonan-7-yl)pyrazolo[1,5-a][1,3,5]triazin-4-amine]
IC50 (CDK9/Cyclin T1): > 2500 nM
IC50 (CDK7/CycH/Mat1; [1]): < 5 nM

CC(C)c1cnn2c(NCc3ccccc3-c3nnnn3C)nc(N3CCC4(CCCN4)CC3)nc12 [(VIII-18), 8-isopropyl-N-(2-(1-methyl-1H-tetrazol-5-yl)benzyl)-2-(1,8-diazaspiro[4.5]decan-8-yl)pyrazolo[1,5-a][1,3,5]triazin-4-amine]
IC50 (CDK9/Cyclin T1): > 2500 nM
IC50 (CDK7/CycH/Mat1; [1]): < 5 nM

CC(C)c1cnn2c(NCc3ccccc3-c3nnn(C)n3)nc(N3CCC4(CCCN4)CC3)nc12 [(VIII-19), 8-isopropyl-N-(2-(2-methyl-2H-tetrazol-5-yl)benzyl)-2-(1,8-diazaspiro[4.5]decan-8-yl)pyrazolo[1,5-a][1,3,5]triazin-4-amine]
IC50 (CDK9/Cyclin T1): > 2500 nM
IC50 (CDK7/CycH/Mat1; [1]): < 5 nM

CC(C)c1cnn2c(NCc3ccccc3-n3cccn3)nc(N3CCC4(CCN4)CC3)nc12 [(VIII-20), N-(2-(1H-pyrazol-1-yl)benzyl)-8-isopropyl-2-(1,7-diazaspiro[3.5]nonan-7-yl)pyrazolo[1,5-a][1,3,5]triazin-4-amine]
IC50 (CDK9/Cyclin T1): > 2500 nM
IC50 (CDK7/CycH/Mat1; [1]): < 5 nM
